Laboratory results reported in US4350698A, “Antiallergic imidosulfamides” (SmithKline Corporation, priority 1981, dated 1982).

System: slow reacting substance of anaphylaxis (SRS-A)
Test: Inhibition of SRS-A induced contraction of guinea pig ileum
Assay type: cell-based
Conditions: Cavia porcellus, 0.25 h; compound concentration 5×10^-6 M; partially purified SRS-A from guinea pig lung at 40 μg/ml; isolated guinea pig ileum; read-out: percent antagonism of SRS-A induced contraction
Method: The SRS-A antagonist activity of the compounds of this invention is measured by the ability of the active medicament to inhibit SRS-A induced contraction of guinea pig ileum. In this test system, sections of ileum are resected from guinea pigs and placed in 5 ml. tissue baths containing a modified Tyrode's solution. One end of the tissue is fixed to a glass tissue holder, the other is connected to a force-displacement transducer and the tissue is placed under a tension of 500 mg. Isometric tissue contractions are recorded on a six channel polygraph. Baths are constantly aerated with 95% O2 -5% CO2. After a 20 minute stabilization period a concentration of the appropriate agonist which provides a contraction height of 60-80% of the maximum obtainable to that agonist (as determined from full sequential concentration-response curves in separate experiments) is added to the tissue bath and the response recorded. The procedure is repeated until reproducible responses are obtained. […] Percent inhibition produced by the test compound is calculated by subtracting the mean percentage change in control tissue from the mean percentage change in tissues exposed to the test compound. Additional compounds are then evaluated as long as the tissue remains reproducibly responsive to the agonist. […]

O=C(NS(=O)(=O)N1CCc2ccc(Cl)c(Cl)c2C1)N1CCc2ccc(Cl)c(Cl)c2C1 [Compound 1, N-(7,8-Dichloro-1,2,3,4-tetrahydroisoquinolin-2yl)Carbonyl-7,8-dichloro-1,2,3,4-tetrahydroisoquinoline-2-sulfonamide]
inhibition at 5 µM: 46%
